Results from patent US12168007B1, “Substituted piperazines as dopamine D3/D2 receptor modulators” (Richter Gedeon Nyrt, priority 2023, dated 2024).
Values after ≈ are worked out from the molar mass of the structure shown. Like-named read-outs stand apart in the source and are kept apart here.

How the values were obtained:
[1] = Thermodynamic solubility study (37° C., 4 hours); assay type: physicochemical; conditions: fassgf or other biorelevant, thermodynamic from solid, SIF pH = 6.8, 4 hours, read-out: Thermodynamic sol.
Protocol: Thermodynamic Solubility Study (37° C., 4 Hours)
The resulted mixtures/oversaturated solutions are shaken at 37° C. for 4 hrs (to the solution equilibrium) and are filtrated on a Millipore MultiSreen Filter Plate (0.45 μm). Concentrations of the filtrates are determined by LC/UV/MS based on a 5-point calibration. (When the solid material dissolved totally in the aqueous test medium the result should be considered as a minimal value.) Results are shown in Table 2.

[2] = system: apomorphine-induced climbing and sniffing; experiment: Apomorphine-induced climbing and sniffing in mice; assay type: in vivo; conditions: Mus musculus, sc, male CD1 mice, subcutaneous, 1.5 mg/kg apomorphine
Protocol: Apomorphine-Induced Climbing and Sniffing in Mice
Male CD1® mice (Envigo, Horst, NL) weighing 24-29 g were used in the experiments (n=12 per treatment group). Climbing and sniffing behavior were measured by visual observation in cylindrical cages.
Immediately after the subcutaneous administration of the vehicle or the test compound, animals were placed into the cages for 10 minutes to habituate. […] After treatment, animals were replaced into the cylindrical cages. The measurement of climbing and sniffing behavior started 10 minutes after the apomorphine treatment (during the 11th minute) and lasted for 16 minutes. Every minute the climbing behavior was scored as follows: four paws on the floor (0 score); forefeet touching the bars (1 score); and four paws grasping the bars (2 score). Animals were also rated for repetitive sniffing as a measure of stereotypy according to the following scale: no sniffing (0 score), moderate sniffing, little snout contact with cage walls or floor (1 score); and constant sniffing, persistent snout contact (2 score).
Data were analyzed using GraphPad Prism 9 software (GraphPad). Scores for both behaviors were tallied for each individual (possible maximum score 32) and group means were calculated. Drug effect was calculated as percent inhibition of the apomorphine-induced behavior. […]

Kinetic solubility study = assay type: physicochemical; conditions: PBS pH 7.4 with 1% DMSO, aqueous buffer, kinetic from dmso stock; PBS pH = 7.4, 2 hours, RT, 1% DMSO co-solvent; read-out: Kinetic sol.
Protocol: Following shaking of the suspension on an orbital shaker at 300 rpm for 2 hours, the suspension was clarified by vacuum filtration (Multiscreen® Vacuum Manifold; MilliporeSigma). Immediately following the filtration step, […] of the filtrate was transferred into […] of acetonitrile to avoid compound precipitation from the saturated solution. The concentration of the research compound was determined by HPLC-UV-(MS) detection, by using an external standard made from the same batch of research compound.

[3] = system: phencyclidine-induced hypermotility; experiment: Phencyclidine-induced hypermotility in rats; assay type: in vivo; conditions: Rattus norvegicus; male Harlan-Wistar rats, percent inhibition, linear regression; read-out: PCP (ED50 mg/kg)
Protocol: Phencyclidine-Induced Hypermotility in Rats
Spontaneous locomotor activity was measured using a six-channel activity monitor manufactured by Experimetria Ltd. (Budapest, HU). […] Additional arrays of photocells (30 pairs) were placed along opposite sides of the cage at different heights (6.5 cm, 12 cm, 18 cm and 23 cm) in order to detect rearing responses.
Test compounds were administered to study animals either orally or subcutaneously, with ten animals per treatment group. In these studies, male Harlan-Wistar rats (Toxi-Coop, Budapest, HU) weighing 190-210 grams were used. After oral administration of test compound or vehicle, animals were individually habituated to the activity monitors for 30 minutes. In the cases of subcutaneous administration of test compounds, rats were first habituated for 15 minutes to the activity monitors, then treated with the test compound or vehicle followed by replacing them into the activity monitors for an additional 15-minute period of habituation. […]
Data were analyzed using GraphPad® Prism® 9 software (GraphPad, San Diego, CA, USA). […] Drug effect was evaluated using Analysis of Variance (ANOVA, or Welch's ANOVA when appropriate) followed by Dunnett's multiple comparisons test. When appropriate, the ED50 value was determined from percent inhibition data from linear regression analysis.

human 5-HT2A receptors = human 5-HT2A receptors (Homo sapiens (Human), UniProt P28223); experiment: Antagonism at human 5-HT2A receptors, fluorometric Ca2+ detection; assay type: cell-based; conditions: CHO-K1 cells with Gα16, against EC80 5-HT; read-out: 5-HT2A Ca2+ pIC50 (converted)
Source text: Characterization of Antagonism at Human 5-HT2A Receptors using Fluorometric Ca^2+ Detection
CHO-K1 cells expressing human recombinant 5-HT2A receptors and Gα16 (purchased from Euroscreen Fast, Brussels, BE) in culture were cryopreserved according to established protocols, using 90% FBS/10% DMSO as medium. Prior to the experiment, cells were thawed, resuspended in PowerCHO™ 2 medium (Lonza, Basel, Switzerland) supplemented with 10% fetal bovine serum (FBS), 1% penicillin-streptomycin antimycotic solution, and 1% pyruvate. Cells were seeded in 96-well microplates at a density of 40,000 cells/well and incubated overnight at 37° C. in a humidified atmosphere containing 5.0% CO2. […]
Baseline and agonist-evoked [Ca^2+]i (intracellular Ca^2+) changes were monitored with a FlexStation® II 96 well plate reader (Molecular Devices, San Jose, CA, USA). […] Baseline was recorded for 20 seconds followed by agonist stimulation, when 50 μL 3× concentrated agonist (5-HT at its EC80) solution or assay buffer/vehicle was added to all wells at 75 μL/second using the onboard pipettor, at a height corresponding to 155 μL. Fluorescence was monitored for an additional 20 seconds.
Compounds were evaluated against an EC80 5-HT concentration, as determined on each plate with the built-in curve fitting module of the measurement software (SoftMax® Pro 5.2, Molecular Devices, San Jose, CA, USA). […]

human D3 receptors [4] = target: T1, human D3 receptors (Homo sapiens (Human), UniProt P35462); experiment: Agonism at human D3 receptors, cAMP detection (HTRF) in HEK293 cells; assay type: cell-based; conditions: inhibition of forskolin-stimulated cAMP accumulation, HEK293 cells co-expressing adenylyl cyclase V; read-out: D3 cAMP pEC50 (converted)
Target sequence in this assay (P35462 whole entry): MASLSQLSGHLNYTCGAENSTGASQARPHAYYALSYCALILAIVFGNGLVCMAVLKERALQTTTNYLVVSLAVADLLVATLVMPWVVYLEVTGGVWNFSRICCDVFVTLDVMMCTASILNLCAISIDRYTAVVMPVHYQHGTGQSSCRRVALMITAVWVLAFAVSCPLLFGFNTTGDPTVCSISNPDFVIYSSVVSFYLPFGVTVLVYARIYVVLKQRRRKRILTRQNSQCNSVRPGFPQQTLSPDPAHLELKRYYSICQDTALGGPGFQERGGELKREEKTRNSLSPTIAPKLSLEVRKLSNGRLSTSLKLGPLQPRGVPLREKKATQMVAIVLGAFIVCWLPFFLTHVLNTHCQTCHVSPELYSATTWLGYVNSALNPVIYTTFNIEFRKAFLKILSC
Protocol: Characterization of Agonism at Human D3 Receptors Using Cyclic Adenosine Monophosphate Detection
Agonist activity at human D3 receptors was assayed by cAMP levels in HEK293 cells expressing recombinant human D3 receptors (BioXtal, Saint-Félix, France) stably co-expressing adenylyl cyclase V (ACV) (cell line developed by Gedeon Richter) by homogenous time-resolved fluorescence (HTRF) using the cAMP Gi kit (Cisbio/PerkinElmer). HEK293 cells expressing recombinant human D3 receptors and ACV were cultured in DMEM supplemented with 10% FBS, 1% penicillin-streptomycin antimycotic solution, 1% pyruvate, 100 μg/mL G418 (Thermo Fisher Scientific) and 60 μg/mL hygromycin B and maintained at 37° C. in a humidified atmosphere containing 5% CO2. […]
Results were calculated from the ratio of acceptor fluorescence signal (A665 nm) and donor fluorescence signal (A620 nm)×10^4 and expressed as ΔF % values using the following formula: 100× (ratio sample-ratio negative control)/ratio negative control. In all experiments multiple wells were measured in parallel, and the mean ΔF % values were used for further analysis. Agonist activity values were calculated as percentage of inhibition of forskolin-stimulated cAMP accumulation normalized to the response evoked by a maximally effective concentration of dopamine tested in the same experiment. […]

human D2L receptors [5] = target: T2, human D2L receptors (Homo sapiens (Human), UniProt P14416); experiment: β-arrestin recruitment to human dopamine D2L receptors (PathHunter CHO-K1); assay type: cell-based; conditions: β-arrestin-2 recruitment, CHO-K1 cells, normalized to 30 μM dopamine; read-out: D2L arrestin pEC50 (converted)
Target sequence in this assay (P14416 whole entry, looked up): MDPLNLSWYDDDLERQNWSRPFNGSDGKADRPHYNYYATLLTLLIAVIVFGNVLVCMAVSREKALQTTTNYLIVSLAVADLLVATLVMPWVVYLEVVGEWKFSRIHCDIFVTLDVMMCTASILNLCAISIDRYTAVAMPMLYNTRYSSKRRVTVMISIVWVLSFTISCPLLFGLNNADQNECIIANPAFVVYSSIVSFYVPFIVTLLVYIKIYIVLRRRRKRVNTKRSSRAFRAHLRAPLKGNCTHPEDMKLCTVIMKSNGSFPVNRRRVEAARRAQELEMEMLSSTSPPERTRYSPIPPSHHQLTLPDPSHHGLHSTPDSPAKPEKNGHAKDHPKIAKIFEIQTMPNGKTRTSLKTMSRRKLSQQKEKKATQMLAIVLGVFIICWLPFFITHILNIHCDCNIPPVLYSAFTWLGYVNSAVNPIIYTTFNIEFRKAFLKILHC
Target sequence in this assay (P32121 whole entry partner, looked up): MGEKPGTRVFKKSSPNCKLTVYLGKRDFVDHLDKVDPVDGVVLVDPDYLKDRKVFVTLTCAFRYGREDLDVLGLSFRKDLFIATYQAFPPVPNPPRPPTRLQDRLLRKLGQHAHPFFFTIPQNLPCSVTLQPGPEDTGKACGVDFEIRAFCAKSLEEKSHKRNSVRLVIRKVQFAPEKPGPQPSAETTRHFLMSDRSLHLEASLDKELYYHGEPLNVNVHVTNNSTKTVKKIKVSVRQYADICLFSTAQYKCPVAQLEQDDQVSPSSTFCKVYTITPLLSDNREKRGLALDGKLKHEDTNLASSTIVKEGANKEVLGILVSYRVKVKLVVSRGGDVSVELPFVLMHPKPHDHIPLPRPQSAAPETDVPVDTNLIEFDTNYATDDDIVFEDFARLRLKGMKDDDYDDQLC
Protocol: Measurement of β-Arrestin Recruitment to Human Dopamine D2L Receptors
PathHunter® CHO-K1 cells expressing tagged human D2L receptors and tagged β-arrestin-2 (Eurofins DiscoverX, Fremont, CA, USA) were seeded into 96-well white-walled clear bottom tissue culture plates in 90 μL/cell AssayComplete™ Cell Plating 2 (CP2) reagent (Eurofins DiscoverX) at a density of 20,000 cells/well. The plates were incubated overnight in a humidified atmosphere with 5% CO2 at 37° C. Twenty to twenty-four hours later, 20 μL of test compound or vehicle in CP2 reagent and containing 2.2% DMSO was added to the cells, and they were incubated for 90 minutes at 37° C. Then, 55 μL PathHunter® Detection Reagent (Eurofins DiscoverX) was added per well and plates were incubated for 60 minutes at 25° C., followed by luminescence detection using a PHERAstar® FS multimode plate reader (BMG Labtech, Ortenberg, Germany). Raw data were converted to percent stimulation above basal values. Values were further converted to percent of maximal stimulation of β-arrestin recruitment by 30 μM dopamine. EC50 values were calculated from concentration-response curves of at least six concentrations run in duplicates by sigmoidal fitting using Origin® 7.5 software (OriginLab Corporation, Northampton, MA, USA) and were defined as the concentration of the agonist with half-maximal stimulation.

human D2L receptors [6] = target: T2, human D2L receptors; experiment: Agonism of human D2L receptors, cAMP detection (HTRF) in CHO-K1 cells; assay type: cell-based; conditions: inhibition of forskolin-stimulated cAMP accumulation, read-out: D2L cAMP pEC50 (converted)
Target sequence in this assay (P14416 whole entry): as the sequence (P14416 whole entry, looked up) above
Protocol: Agonist activity at human D2L receptors was assayed by measuring cAMP levels in CHO-K1 cells expressing human D2L receptors (Eurofins DiscoverX, Fremont, CA, USA) by homogenous time-resolved fluorescence (HTRF®) using the cAMP Gi kit (Cisbio/PerkinElmer). CHO-K1 cells expressing human D2L receptors were cultured in Ham's F12 medium supplemented with 10% FBS, 1% penicillin-streptomycin antimycotic solution, and 800 μg/mL G418 (Thermo Fisher Scientific, Waltham, MA, USA) and maintained at 37° C. in a humidified atmosphere containing 5.0% CO2. […] Results were calculated from the ratio of acceptor fluorescence signal (A665 nm) and donor fluorescence signal (A620 nm)×10^4 and expressed as ΔF % values using the following formula: 100×(Ratio Sample-Ratio Negative Control)/Ratio Negative Control. In experiments, all treatments were measured in multiple wells in parallel, and the mean ΔF % values were used for further analysis. Agonist activity values were calculated as percentage of inhibition of forskolin-stimulated cAMP accumulation normalized to the response evoked by a maximally effective concentration of dopamine tested in the same experiment. […]

human D3 receptors [7] = target: T1, human D3 receptors; experiment: β-arrestin recruitment to human dopamine D3 receptors (PathHunter CHO-K1); assay type: cell-based
Target sequence in this assay (P35462 whole entry, looked up): as the sequence (P35462 whole entry) above
Target sequence in this assay (P32121 whole entry partner, looked up): as the sequence (P32121 whole entry partner, looked up) above
Protocol: Measurement of β-Arrestin Recruitment to Human Dopamine D3 Receptors
PathHunter® CHO-K1 cells expressing tagged human D3 receptors and tagged β-arrestin-2 (Eurofins DiscoverX, Fremont, CA, USA) were seeded into 96-well white-walled clear bottom tissue culture plates in 90 μL AssayComplete™ Cell Plating 2 (CP2) reagent (Eurofins DiscoverX) at a density of 25,000 cells/well and incubated overnight in humidified atmosphere with 5% CO2 at 37° C. Twenty to twenty-four hours later, 20 μL of test compounds or vehicle in CP2 reagent containing 2.2% DMSO was added to the cells and the cells were incubated for 90 minutes at 37° C. Following incubation, 55 μL PathHunter® Detection Reagent (Eurofins DiscoverX) was added per well and the plates were incubated for 60 minutes at 25° C. followed by luminescence detection using a PHERAstar® FS multimode plate reader (BMG Labtech, Ortenberg, Germany).
Raw data were first converted to stimulation % above basal values. The stimulation % above basal values were further converted to % of maximal stimulation of β-arrestin recruitment by 1 μM dopamine. EC50 values were calculated from concentration-response curves of at least six concentrations in duplicates by sigmoidal fitting using Origin® 7.5 software (OriginLab© Corporation, Northampton, MA, USA) and were defined as the concentration of the agonist with half-maximal stimulation.

Sequence of human 5-HT2A receptors (P28223 whole entry): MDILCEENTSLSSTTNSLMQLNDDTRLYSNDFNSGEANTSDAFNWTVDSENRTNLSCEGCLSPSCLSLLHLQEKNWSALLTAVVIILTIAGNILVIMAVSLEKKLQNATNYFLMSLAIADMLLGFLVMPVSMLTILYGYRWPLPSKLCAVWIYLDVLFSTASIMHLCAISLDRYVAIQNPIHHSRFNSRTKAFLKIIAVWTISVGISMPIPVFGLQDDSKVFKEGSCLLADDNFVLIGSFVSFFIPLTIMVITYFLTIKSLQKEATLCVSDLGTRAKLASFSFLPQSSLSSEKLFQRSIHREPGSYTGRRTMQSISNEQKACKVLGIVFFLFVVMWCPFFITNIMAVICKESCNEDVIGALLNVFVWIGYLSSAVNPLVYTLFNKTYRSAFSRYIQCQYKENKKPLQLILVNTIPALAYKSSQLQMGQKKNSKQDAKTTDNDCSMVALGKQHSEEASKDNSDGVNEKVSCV

Row | SMILES | solubility thermodynamic at 4 h [1] | ED50 ([2]; apomorphine-induced climbing, read-out: APO (ED50 cl mg/kg)) | ED50 ([2]; apomorphine-induced sniffing, read-out: APO (ED50 sn mg/kg)) | solubility kinetic at 2 h (Kinetic solubility study) | ED50 [3] | IC50 (human 5-HT2A receptors) | EC50 (human D3 receptors [4]) | EC50 (human D2L receptors [5]) | EC50 (human D2L receptors [6]) | EC50 (human D3 receptors [7])
1 | CCOCN(C)C(=O)N[C@H]1CC[C@H](CCN2CCN(c3cccc(Cl)c3Cl)CC2)CC1 [Example 1, N′-[(1r,4r)-4-{2-[4-(2,3-dichlorophenyl)piperazin-1-yl]ethyl}cyclohexyl]-N-(ethoxymethyl)-N-methylurea] | 53.5 ± 0.9 µM (≈ 25.2 µg/mL) | 0.1 mg/kg | 0.4 mg/kg | 72.7 ± 3.4 µM (≈ 34.3 µg/mL) | 0.07 mg/kg | 158 nM |  |  |  | 
2 | COCN(C)C(=O)N[C@H]1CC[C@H](CCN2CCN(c3cccc(Cl)c3Cl)CC2)CC1 [Example 2, N′-[(1r,4r)-4-{2-[4-(2,3-dichlorophenyl)piperazin-1-yl]ethyl}cyclohexyl]-N-(methoxymethyl)-N-methylurea] | 147 ± 8.72 µM (≈ 67.3 µg/mL) |  |  | 47.7 ± 4.5 µM (≈ 21.8 µg/mL) |  | 132 nM | 1.95 nM | 0.724 nM | 1.32 nM | 3.89 nM
3 | CCCOCN(C)C(=O)N[C@H]1CC[C@H](CCN2CCN(c3cccc(Cl)c3Cl)CC2)CC1 [Example 3, N′-[(1r,4r)-4-{2-[4-(2,3-dichlorophenyl)piperazin-1-yl]ethyl}cyclohexyl]-N-methyl-N-(propoxymethyl)urea] | 32.7 ± 1.65 µM (≈ 15.9 µg/mL) |  |  | 32.4 ± 3.2 µM (≈ 15.7 µg/mL) |  |  |  |  |  | 
4 | CCCN(C)C(=O)N[C@H]1CC[C@H](CCN2CCN(c3cccc(Cl)c3Cl)CC2)CC1 [Ref. Ex. 1, N′-[(1r,4r)-4-{2-[4-(2,3-dichlorophenyl)piperazin-1-yl]ethyl}cyclohexyl]-N-methyl-N-propylurea, reference compound] | 27.7 ± 1.1 µM (≈ 12.6 µg/mL) |  |  | 10.9 ± 1.7 µM (≈ 4.96 µg/mL) |  |  |  |  |  | 
